Experimental data from patent publication US12043601B2, “N-substituted-1H-1,2,4-triazole-3-carboxamides, analogues thereof, and methods of treatment using same” (THE REGENTS OF THE UNIVERSITY OF COLORADO, priority 2018, dated 2024).
≈ marks a conversion by molar mass, not a printed value.

How the values were obtained:
DksA = DksA (Salmonella typhimurium, UniProt P0A1G5); test: DksA-dependent livJ in vitro transcription; type: biochemical; settings: livJ promoter; for IVT: concentration showing activity
Method: To measure the potency of a compound in inhibition of DksA biological function, rpsMtranscripts in vitro was determined by non-radioactive in vitro transcription reactions with qPCR analysis with divergent compounds. Briefly, 5 nM pTIM-rpsMplasmid was mixed with […] of compounds in 10 μl reaction buffer (40 mM HEPES [pH 7.4], 2 mM MgCl2, 60 mM potassium glutamate, 0.05% NP-40, 200 μM ATP, 200 μM GTP, 200 μM CTP, 200 μM UTP, and 5 nM E. coli RNA polymerase holoenzyme (NEB, Ipswich, MA) with 5 μM DksA. The in vitro transcription was carried out at 37° C. for 10 min, and then terminated at 70° C. for 10 min. To remove template DNA after treated with DNaseI, DNA-free DNA Removal kit (ThermoFisher) was used according to manufacturer's direction. The resulting materials were used as templates to generate cDNA with 100 U MMLV reverse transcriptase (Promega), 0.45 μM gene specific primer, and 20 U RNase inhibitor (Promega). The amount of cDNA synthesized for 1 h at 42° C. was quantified by real-time PCR (qRT-PCR). The copy number of specific transcripts was calculated to the standard curve generated with known gene copy concentrations. The IC50 is the concentration at which the curve passes through the 50% inhibition level. Standard deviation was calculated from 3 independent experiments.
The compounds were initially tested at 0.1 μM and 1 μM using as a target the promoter of the livJ gene that encodes a transporter of branch-chain amino acids (Table 4).

Salmonella strain 14028s = test: Minimum inhibitory concentration in EG minimal media; type: cell-based, Salmonella Typhimurium; settings: 18 h; for Growth in EG at concentration tested 1 μg/ml / Growth in EG at concentration tested 2 μg/ml / Growth in EG at concentration tested 4 μg/ml / Growth in EG at concentration tested 8 μg/ml / Growth in EG at concentration tested 16 μg/ml / Growth in EG at concentration tested 32 μg/ml: EG minimal media, 37° C.; for MIC: Salmonella, 14028S
Method: DksA controls transcription of metabolic and virulence genes, allowing bacteria to both grow in minimum media and cause disease. Inhibition of bacterial growth in EG minimum media was used as an easy and reliable proxy of the DksA-dependent regulation of metabolism.
In a non-limiting example, wild-type Salmonella strain 14028s was grown overnight (18.5 h), and then diluted in EG minimal media to a density of about 10^5 CFU/mL. […] Each test tube was incubated at 37° C. with shaking for 18 h and bacterial growth was evaluated. The MIC value was determined as the lowest concentration of compound that inhibited growth.

Compound solubility = type: physicochemical; settings: for Compound Solubility, 1 μM: solvent at 1 μM; for Compound Solubility, 10 μM: solvent at 10 μM; for Compound Solubility, 100 μM: solvent at 100 μM; for Compound Solubility, 1 mM: solvent at 1 mM; for Compound Solubility, 10 mM: solvent at 10 mM; for Compound Solubility, 16 mg/ml: solvent at 16 mg/ml

Sequence of DksA (P0A1G5 whole entry): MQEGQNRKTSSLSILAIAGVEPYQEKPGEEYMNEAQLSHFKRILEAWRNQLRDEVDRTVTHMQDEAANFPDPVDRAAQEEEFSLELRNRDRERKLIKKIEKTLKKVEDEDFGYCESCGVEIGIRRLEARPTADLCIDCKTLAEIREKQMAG

Row | Structure (SMILES) | In vitro transcription assay result, 0.1 μM (DksA) | In vitro transcription assay result, 1 μM (DksA) | IVT (DksA) | Growth in EG at concentration tested 1 μg/ml (Salmonella strain 14028s) | Growth in EG at concentration tested 2 μg/ml (Salmonella strain 14028s) | Growth in EG at concentration tested 4 μg/ml (Salmonella strain 14028s) | Growth in EG at concentration tested 8 μg/ml (Salmonella strain 14028s) | Growth in EG at concentration tested 16 μg/ml (Salmonella strain 14028s) | Growth in EG at concentration tested 32 μg/ml (Salmonella strain 14028s) | Compound Solubility, 1 μM (Compound solubility) | Compound Solubility, 10 μM (Compound solubility) | Compound Solubility, 100 μM (Compound solubility) | Compound Solubility, 1 mM (Compound solubility) | Compound Solubility, 10 mM (Compound solubility) | Compound Solubility, 16 mg/ml (Compound solubility) | MIC (Salmonella strain 14028s)
1 | O=C(Nc1cccc(OC(F)(F)F)c1)c1nc[nH]n1 [Compound 5, N-(3-(trifluoromethoxy)phenyl)-1H-1,2,4-triazole-3-carboxamide] | no induction | no induction | 0.1 µM | + | + | + | + | + | + | water | water | water | water | DMSO | DMSO | 
2 | COc1cccc(CNC(=O)c2nc[nH]n2)c1 [Compound 7, N-(3-methoxybenzyl)-1H-1,2,4-triazole-3-carboxamide] | no change | no change |  | + | + | + |  |  |  | water | water | water | water | water | DMSO | 8 µg/mL (≈ 34.4 µM)
3 | C[C@H](NC(=O)c1nc[nH]n1)c1ccccc1 [Compound 18, (S)-N-(1-phenylethyl)-1H-1,2,4-triazole-3-carboxamide] | no induction | no induction | 0.1 µM | + | + | + | + | + | + | water | water | water | water | water | DMSO | 
4 | CC(C)(C)c1ccc(NC(=O)c2nc[nH]n2)cc1 [Compound 13, N-(4-(tert-butyl)phenyl)-1H-1,2,4-triazole-3-carboxamide] | no induction | no induction | 0.1 µM | + | + | + | + | + | + | water | water | water | water | DMSO | DMSO | 
5 | COc1ccc(CNC(=O)c2nc[nH]n2)cc1C(F)(F)F [Compound 10, N-(4-methoxy-3-(trifluoromethyl)benzyl)-1H-1,2,4-triazole-3-carboxamide] | no change | no induction | 1 µM | + | + | + | + | + | + | water | water | water | water | water | DMSO | 
6 | COc1cccc(CNC(=O)c2nc[nH]n2)c1OC [Compound 3, N-(2,3-dimethoxybenzyl)-1H-1,2,4-triazole-3-carboxamide] | no induction | no induction | 0.1 µM | + | + | + | + |  |  | water | water | water | water | water | DMSO | 32 µg/mL (≈ 122 µM)
7 | COc1ccc(CNC(=O)c2nc[nH]n2)cc1 [Compound 4, N-(4-methoxybenzyl)-1H-1,2,4-triazole-3-carboxamide] | no change | no change |  | + | + | + |  |  |  | water | water | water | water | water | DMSO | 8 µg/mL (≈ 34.4 µM)
8 | C[C@@H](NC(=O)c1nc[nH]n1)c1ccccc1 [Compound 17, (R)-N-(1-phenylethyl)-1H-1,2,4-triazole-3-carboxamide] | no induction | no induction | 0.1 µM | + | + | + | + | + | + | water | water | water | water | water | DMSO | 
9 | O=C(Nc1ccc(C(F)(F)F)cc1)c1nc[nH]n1 [Compound 11, N-(4-(trifluoromethyl)phenyl)-1H-1,2,4-triazole-3-carboxamide] | good repression | good repression | 0.1 µM | + | + | + | + | + | + | water | water | water | DMSO | DMSO | DMSO | 
10 | COc1ccc([C@@H](C)NC(=O)c2nc[nH]n2)cc1 [Compound 22, (R)-N-(1-(4-methoxyphenyl)ethyl)-1H-1,2,4-triazole-3-carboxamide] | no induction | no induction | 0.1 µM | + | + | + | + | + | + | water | water | water | water | water | DMSO | 
11 | O=C(NCc1cccc(OC(F)(F)F)c1)c1nc[nH]n1 [Compound 9, N-(3-(trifluoromethoxy)benzyl)-1H-1,2,4-triazole-3-carboxamide] | no induction | Repression | 0.1 µM | + | + | + | + | + | + | water | water | water | water | DMSO | DMSO | 
